Laboratory results from patent publication US9771381B2, “Derivatives of 1-amino-2-cyclobutylethylboronic acid” (Millennium Pharmaceuticals, Inc., priority 2008, dated 2017).

biological target: T1, human 20S proteasome (Homo sapiens, UniProt P28074); test: 20S Proteasome Assay; format: biochemical; details: Ac-WLA-AMC substrate 15 μM, human PA28 activator 12 nM, human 20S proteasome 0.25 nM, 37° C., pH7.4
T1 construct: purchased Boston Biochem

Row | SMILES | IC50
1 | O=C(N[C@@H](Cc1ccccc1)C(=O)N[C@@H](CC1CCC1)B(O)O)c1ccc(O)c(CN2CCOCC2)c1 [Compound 3, {(1R)-2-cyclobutyl-1-[((2S)-2-{[4-hydroxy-3-(morpholin-4-ylmethyl)benzoyl]amino}-3-phenylpropanoyl)amino]ethyl}boronic acid] | < 50 nM
2 | CC1(C)[C@@H]2C[C@H]3OB([C@H](CC4CCC4)NC(=O)[C@H](Cc4ccccc4)NC(=O)c4cc(Cl)ccc4Cl)O[C@@]3(C)[C@H]1C2 [Compound 5, N-[(1S)-1-benzyl-2-({(1R)-2-cyclobutyl-1-[(3aS,4S,6S,7aR)-3a,5,5-trimethylhexahydro-4,6-methano-1,3,2-benzodioxaborol-2-yl]ethyl}amino)-2-oxoethyl]-2,5-dichlorobenzamide] | < 50 nM
3 | CN1CCOc2cc(S(=O)(=O)N[C@@H](Cc3ccccc3)C(=O)N[C@@H](CC3CCC3)B3O[C@@H]4C[C@@H]5C[C@@H](C5(C)C)[C@]4(C)O3)ccc21 [Compound 8, (2S)-N-{(1R)-2-cyclobutyl-1-[(3aS,4S,6S,7aR)-3a,5,5-trimethylhexahydro-4,6-methano-1,3,2-benzodioxaborol-2-yl]ethyl}-2-{[(4-methyl-3,4-dihydro-2H-1,4-benzoxazin-7-yl)sulfonyl]amino}-3-phenylpropanamide] | < 50 nM
4 | CC1(C)[C@@H]2C[C@H]3OB([C@H](CC4CCC4)NC(=O)[C@H](Cc4ccccc4)NC(=O)c4ccc(O)c(CN5CCOCC5)c4)O[C@@]3(C)[C@H]1C2 [Compound 10, N-[(1S)-1-benzyl-2-({(1R)-2-cyclobutyl-1-[(3aS,4S,6S,7aR)-3a,5,5-trimethylhexahydro-4,6-methano-1,3,2-benzodioxaborol-2-yl]ethyl}amino)-2-oxoethyl]-4-hydroxy-3-(morpholin-4-ylmethyl)benzamide] | 50 to 150 nM
5 | O=C(N[C@@H](CC1CCC1)B(O)O)[C@H](Cc1ccccc1)NS(=O)(=O)c1ccc(Oc2ccccc2)nc1 [Compound 11, {(1R)-2-cyclobutyl-1-[((2S)-2-{[(6-phenoxypyridin-3-yl)sulfonyl]amino}-3-phenylpropanoyl)amino]ethyl}boronic acid] | < 50 nM
6 | CC1(C)[C@@H]2C[C@H]3OB([C@H](CC4CCC4)NC(=O)[C@H](Cc4ccccc4)NS(=O)(=O)c4ccc5ccccc5c4)O[C@@]3(C)[C@H]1C2 [Compound 12, (2S)-N-{(1R)-2-cyclobutyl-1-[(3aS,4S,6S,7aR)-3a,5,5-trimethylhexahydro-4,6-methano-1,3,2-benzodioxaborol-2-yl]ethyl}-2-[(2-naphthylsulfonyl)amino]-3-phenylpropanamide] | < 50 nM
7 | CC1(C)[C@@H]2C[C@H]3OB([C@H](CC4CCC4)NC(=O)[C@H](Cc4ccccc4)NS(=O)(=O)c4cccnc4)O[C@@]3(C)[C@H]1C2 [Compound 15, (2S)-N-{(1R)-2-cyclobutyl-1-[(3aS,4S,6S,7aR)-3a,5,5-trimethylhexahydro-4,6-methano-1,3,2-benzodioxaborol-2-yl]ethyl}-3-phenyl-2-[(pyridin-3-ylsulfonyl)amino]propanamide] | 50 to 150 nM
8 | CC(=O)N[C@@H](CCc1ccccc1)C(=O)N[C@@H](Cc1ccccc1)C(=O)N[C@@H](CC1CCC1)B1O[C@@H]2C[C@@H]3C[C@@H](C3(C)C)[C@]2(C)O1 [Compound 16, (2S)-2-(acetylamino)-N-[(1S)-1-benzyl-2-({(1R)-2-cyclobutyl-1-[(3aS,4S,6S,7aR)-3a,5,5-trimethylhexahydro-4,6-methano-1,3,2-benzodioxaborol-2-yl]ethyl}amino)-2-oxoethyl]-4-phenylbutanamide] | < 50 nM
9 | O=C(N[C@@H](Cc1ccccc1)C(=O)N[C@@H](CC1CCC1)B(O)O)c1ccc2nc(-c3ccccc3)[nH]c2c1 [Compound 18, {(1R)-2-cyclobutyl-1-[((2S)-3-phenyl-2-{[(2-phenyl-1H-benzimidazol-6-yl)carbonyl]amino}propanoyl)amino]ethyl}boronic acid] | < 50 nM
10 | CC(=O)N[C@@H](CCc1ccccc1)C(=O)N[C@@H](Cc1ccccc1)C(=O)N[C@@H](CC1CCC1)B(O)O [Compound 22, {(1R)-1-[((2S)-2-{[(2S)-2-(acetylamino)-4-phenylbutanoyl]amino}-3-phenylpropanoyl)amino]-2-cyclobutylethyl}boronic acid] | < 50 nM
11 | O=C(N[C@@H](Cc1ccccc1)C(=O)N[C@@H](CC1CCC1)B(O)O)c1cccnc1Nc1cccc(C(F)(F)F)c1 [Compound 23, {(1R)-2-cyclobutyl-1-[((2S)-3-phenyl-2-{[(2-{[3-(trifluoromethyl)phenyl]amino}pyridin-3-yl)carbonyl]amino}propanoyl)amino]ethyl}boronic acid] | < 50 nM
12 | CC1(C)[C@@H]2C[C@H]3OB([C@H](CC4CCC4)NC(=O)[C@H](Cc4ccccc4)NS(=O)(=O)c4ccc(Oc5ccccc5)nc4)O[C@@]3(C)[C@H]1C2 [Compound 24, (2S)-N-{(1R)-2-cyclobutyl-1-[(3aS,4S,6S,7aR)-3a,5,5-trimethylhexahydro-4,6-methano-1,3,2-benzodioxaborol-2-yl]ethyl}-2-{[(6-phenoxypyridin-3-yl)sulfonyl]amino}-3-phenylpropanamide] | < 50 nM
13 | Cn1ccc2c(S(=O)(=O)N[C@@H](Cc3ccccc3)C(=O)N[C@@H](CC3CCC3)B(O)O)cccc21 [Compound 30, {(1R)-2-cyclobutyl-1-[((2S)-2-{[(1-methyl-1H-indol-4-yl)sulfonyl]amino}-3-phenylpropanoyl)amino]ethyl}boronic acid] | < 50 nM
14 | O=C1COc2cc(S(=O)(=O)N[C@@H](Cc3ccccc3)C(=O)N[C@@H](CC3CCC3)B(O)O)c(Cl)cc2N1 [Compound 32, {(1R)-1-[((2S)-2-{[(6-chloro-3-oxo-3,4-dihydro-2H-1,4-benzoxazin-7-yl)sulfonyl]amino}-3-phenylpropanoyl)amino]-2-cyclobutylethyl}boronic acid] | < 50 nM
15 | CN1CCOc2ccc(C(=O)N[C@@H](Cc3ccccc3)C(=O)N[C@@H](CC3CCC3)B(O)O)cc21 [Compound 37, {(1R)-2-cyclobutyl-1-[((2S)-2-{[(4-methyl-3,4-dihydro-2H-1,4-benzoxazin-6-yl)carbonyl]amino}-3-phenylpropanoyl)amino]ethyl}boronic acid] | < 50 nM
16 | O=C(N[C@@H](CC1CCC1)B(O)O)[C@H](Cc1ccccc1)NS(=O)(=O)c1cc(F)ccc1F [Compound 38, {(1R)-2-cyclobutyl-1-[((2S)-2-{[(2,5-difluorophenyl)sulfonyl]amino}-3-phenylpropanoyl)amino]ethyl}boronic acid] | < 50 nM

Other lines, results leading:

Row | IC50 | SMILES
17 | < 50 nM | O=C(N[C@@H](CC1CCC1)B(O)O)[C@H](Cc1ccccc1)NC(=O)[C@H](CCc1ccccc1)NS(=O)(=O)Cc1ccccc1 [Compound 4, [(1R,4S,7S)-4-benzyl-1-(cyclobutylmethyl)-9,9-dioxido-3,6-dioxo-10-phenyl-7-(2-phenylethyl)-9-thia-2,5,8-triazadec-1-yl]boronic acid]
18 | < 50 nM | O=C(N[C@@H](Cc1ccccc1)C(=O)N[C@@H](CC1CCC1)B(O)O)c1cccc(Oc2ccccc2)c1 [Compound 7, [(1R)-2-cyclobutyl-1-({(2S)-2-[(3-phenoxybenzoyl)amino]-3-phenylpropanoyl}amino)ethyl]boronic acid]
19 | < 50 nM | CC1(C)[C@@H]2C[C@H]3OB([C@H](CC4CCC4)NC(=O)[C@H](Cc4ccccc4)NC(=O)c4cccnc4Oc4ccccc4)O[C@@]3(C)[C@H]1C2 [Compound 9, N-[(1S)-1-benzyl-2-({(1R)-2-cyclobutyl-1-[(3aS,4S,6S,7aR)-3a,5,5-trimethylhexahydro-4,6-methano-1,3,2-benzodioxaborol-2-yl]ethyl}amino)-2-oxoethyl]-2-phenoxynicotinamide]
20 | < 50 nM | CC1(C)[C@@H]2C[C@H]3OB([C@H](CC4CCC4)NC(=O)[C@H](Cc4ccccc4)NC(=O)c4cccc(Oc5ccccc5)c4)O[C@@]3(C)[C@H]1C2 [Compound 13]
21 | < 50 nM | CC1(C)[C@@H]2C[C@H]3OB([C@H](CC4CCC4)NC(=O)[C@H](Cc4ccccc4)NC(=O)c4ccc5[nH]c(-c6ccccc6)nc5c4)O[C@@]3(C)[C@H]1C2 [Compound 14]
22 | < 50 nM | CC1(C)[C@@H]2C[C@H]3OB([C@H](CC4CCC4)NC(=O)[C@H](Cc4ccccc4)NC(=O)c4cccnc4Nc4cccc(C(F)(F)F)c4)O[C@@]3(C)[C@H]1C2 [Compound 19, N-[(1S)-1-benzyl-2-({(1R)-2-cyclobutyl-1-[(3aS,4S,6S,7aR)-3a,5,5-trimethylhexahydro-4,6-methano-1,3,2-benzodioxaborol-2-yl]ethyl}amino)-2-oxoethyl]-2-{[3-(trifluoromethyl)phenyl]amino}nicotinamide]
23 | < 50 nM | CC1(C)[C@@H]2C[C@H]3OB([C@H](CC4CCC4)NC(=O)[C@H](Cc4ccccc4)NC(=O)[C@H](CCc4ccccc4)NS(=O)(=O)Cc4ccccc4)O[C@@]3(C)[C@H]1C2 [Compound 21, (2S)-N-[(1S)-1-benzyl-2-({(1R)-2-cyclobutyl-1-[(3aS,4S,6S,7aR)-3a,5,5-trimethylhexahydro-4,6-methano-1,3,2-benzodioxaborol-2-yl]ethyl}amino)-2-oxoethyl]-2-[(benzylsulfonyl)amino]-4-phenylbutanamide]
24 | < 50 nM | O=C(c1cccc(S(=O)(=O)N[C@@H](Cc2ccccc2)C(=O)N[C@@H](CC2CCC2)B(O)O)c1)c1ccccn1 [Compound 29, ((1R)-2-cyclobutyl-1-{[(2S)-3-phenyl-2-({[3-(pyridin-2-ylcarbonyl)phenyl]sulfonyl}amino)propanoyl]amino}eth-yl)boronic acid]
25 | < 50 nM | O=C(N[C@@H](CC1CCC1)B(O)O)[C@H](Cc1ccccc1)NS(=O)(=O)c1ccc(N2CCOCC2)nc1 [Compound 31, {(1R)-2-cyclobutyl-1-[((2S)-2-{[(6-morpholin-4-ylpyridin-3-yl)sulfonyl]amino}-3-phenylpropanoyl)amino]ethyl}boronic acid]
26 | < 50 nM | O=C(N[C@@H](CC1CCC1)B(O)O)[C@H](Cc1ccccc1)NS(=O)(=O)c1cccc(Oc2ccc(C(F)(F)F)cn2)c1 [Compound 34, {(1R)-2-cyclobutyl-1-[((2S)-3-phenyl-2-{[(3-{[5-(trifluoromethyl)pyridin-2-yl]oxy}phenyl)sulfonyl]amino}pro-panoyl)amino]ethyl}boronic acid]
